Measured values from ChEMBL document CHEMBL4393659, “Insights into the chemistry and therapeutic potential of furanones: A versatile pharmacophore” (Eur J Med Chem, 2019).
Converted amounts (≈) assume the structure as drawn.

Assays:
Rattus norvegicus [1] = assay: Antiinflammatory activity in Wistar rat assessed as inhibition of carrageenan-induced edema measured upto 4 hrs; type: functional
A549 = assay: Cytotoxicity against human A549 cells assessed as reduction in cell viability incubated for 48 hrs by SRB method; type: functional; conditions: A549, 48 h, read-out: ED50 (the source's name)
SK-OV-3 = assay: Cytotoxicity against human SKOV3 cells assessed as reduction in cell viability incubated for 48 hrs by SRB method; type: functional; conditions: SK-OV-3, 48 h, read-out: ED50 (the source's name)
NIH3T3 = assay: Cytotoxicity against mouse NIH/3T3 cells assessed as reduction in cell viability incubated for 48 hrs by SRB method; type: functional; conditions: NIH3T3, 48 h, read-out: ED50 (the source's name)
Staphylococcus aureus [2] = assay: Antibacterial activity against Staphylococcus aureus; type: functional
Escherichia coli [3] = assay: Antibacterial activity against Escherichia coli; type: functional
[4] = tested on: Mycobacterium tuberculosis; assay: Antimycobacterial activity against Mycobacterium tuberculosis H37Rv; type: functional, organism-based
[5] = biological target: GABA-A receptor; anion channel; assay: Displacement of [35S]TBPS from GABAA (unknown origin) incubated for 90 mins by scintillation counting method; type: protein-complex assay, Homo sapiens
Mus musculus [6] = assay: Anticonvulsant activity in ip dosed CF-1 mouse assessed as protection against PTZ-induced seizures measured after 30 mins […]; type: functional
Rattus norvegicus [7] = assay: Antiinflammatory activity in po dosed rat; type: functional
Salmonella typhimurium = assay: Inhibition of biofilm formation in Salmonella enterica subsp. enterica serovar Typhimurium 14028S incubated for 48 hrs by crystal violet staining based assay; type: functional, organism-based
Rattus norvegicus [8] = species on record: Rattus norvegicus; assay: Antiarthritic activity in adjuvant-induced Sprague-Dawley rat; type: functional
Rattus norvegicus [9] = assay: Antiinflammatory activity in po dosed Sprague-Dawley rat assessed as inhibition of carrageenan-induced paw edema incubated for one hour followed by carrageenan addition and measured after 3 hrs; type: functional
[10] = Acute toxicity in Swiss albino mouse assessed as reduction in mortality of animal at 200 to 800 mg/kg , ip observed for 8 days; type: organism-based; conditions: in vivo
Plasmodium falciparum = assay: Antimalarial activity against Plasmodium falciparum infected in human blood assessed as reduction in cell viability incubated for 72 hrs by Giemsa stain based assay; type: functional
Aspergillus fumigatus [11] = assay: Antifungal activity against Aspergillus fumigatus assessed as reduction in fungal cell viability measured after 24 and 48 hrs by broth microdilution method; type: functional
Rattus norvegicus [12] = assay: Antiinflammatory activity in Wistar albino rat assessed as inhibition of carrageenan-induced paw edema at 20 mg/kg , po incubated for 30 mins followed by carrageenan addition and measured after 3 hrs by plethysmometry relative to control; type: functional
Mus musculus [13] = assay: Analgesic activity in Swiss albino mouse assessed as inhibition of acetic acid induced writhing at 20 mg/kg , po incubated for 3 hrs followed by acetic acid administered and observed for 5 to 15 mins relative to control; type: functional
Candida albicans [14] = assay: Antifungal activity against Candida albicans ATCC 90028 assessed as reduction in fungal cell viability measured after 24 and 48 hrs by spectrophotometry; type: functional
Lichtheimia corymbifera = assay: Antifungal activity against Absidia corymbifera assessed as reduction in fungal cell viability by broth dilution method; type: functional
Aspergillus fumigatus [15] = assay: Antifungal activity against Aspergillus fumigatus assessed as reduction in fungal cell viability by broth dilution method; type: functional
Rattus norvegicus [16] = assay: Antiinflammatory activity in albino rat assessed as inhibition of carrageenan-induced paw edema by measuring mercury displacement at 20 mg/kg , po relative to control; type: functional
Mus musculus [17] = assay: Anticonvulsant activity in ip dosed mouse assessed as reduction in PTZ-induced seizures pretreated for 30 mins followed by PTZ addition; type: functional
Staphylococcus aureus [18] = assay: Antibacterial activity against Staphylococcus aureus ATCC 29737 assessed as reduction in bacterial cell viability incubated for 24 hrs by broth microdilution method; type: functional; conditions: ATCC 29737, 24 h
Pseudomonas aeruginosa = assay: Antibacterial activity against Pseudomonas aeruginosa NCLM-2035 assessed as reduction in bacterial cell viability incubated for 24 hrs by broth microdilution method; type: functional; conditions: NCLM-2035, 24 h
Rhizopus arrhizus = assay: Antifungal activity against Rhizopus oryzae assessed as reduction in fungal cell viability incubated for 48 hrs by broth microdilution method; type: functional
Candida albicans [19] = assay: Antifungal activity against Candida albicans assessed as reduction in fungal cell viability incubated for 48 hrs by broth microdilution method; type: functional
Escherichia coli [20] = assay: Antibacterial activity against Escherichia coli ATCC 8739 assessed as reduction in bacterial cell viability incubated for 24 hrs by broth microdilution method; type: functional; conditions: ATCC 8739, 24 h
Aspergillus niger = assay: Antifungal activity against Aspergillus niger assessed as reduction in fungal cell viability incubated for 48 hrs by broth microdilution method; type: functional

Structure (SMILES): O=C1OC(c2ccc3ccccc3c2)=C/C1=C\c1cc2ccccc2nc1Cl
- inhibition (INH) (Rattus norvegicus [1]): 56 - 63%

Structure (SMILES): Cc1ccc2cc(/C=C3\C=C(c4ccc(-c5ccccc5)cc4)OC3=O)c(Cl)nc2c1
- inhibition (INH) (Rattus norvegicus [1]): 56 - 63%

Structure (SMILES): COc1cc(/C=C2\C=CC(=O)O2)c(OC)c2c1C(=O)c1ccccc1C2=O
- EC50 (A549): 9.2 to 16.5 µg/mL (≈ 25.4 to 45.5 µM)
- EC50 (SK-OV-3): 9.2 to 16.5 µg/mL (≈ 25.4 to 45.5 µM)
- EC50 (NIH3T3): 9.2 to 16.5 µg/mL (≈ 25.4 to 45.5 µM)

Structure (SMILES): COC(=O)C(Cl)C1(Cl)OC(c2ccc(Cl)cc2)=C(Cl)C1=O (stereo unspecified)
- MIC (Staphylococcus aureus [2]): 15.6 µg/mL (≈ 42.2 µM)
- MIC (Escherichia coli [3]): 62.5 µg/mL (≈ 169 µM)

Structure (SMILES): COc1cc(/C=C2\C=C(c3cccc(Br)c3)OC2=O)ccc1OC(C)=O
- IC50 [4]: 5.05 µg/mL (≈ 12.2 µM)
- IC90 [4]: 7.85 µg/mL (≈ 18.9 µM)

Structure (SMILES): CC1(CC(F)(F)F)COC(=O)C1 (stereo unspecified)
- IC50 [5]: 8 µM
- CD50 (Mus musculus [6]): 3 mg/kg

Structure (SMILES): CC1(O)OC(=O)C(c2ccccc2)=C1c1ccc(S(C)(=O)=O)cc1 (stereo unspecified)
- ED50 (Rattus norvegicus [7]): 1.5 mg/kg

Structure (SMILES): O=C1C=C(c2ccc(Br)cc2)O/C1=N\C12CC3CC(CC(C3)C1)C2
- MIC (Escherichia coli [3]): 31 µg/mL (≈ 80.3 µM)

Structure (SMILES): CCC1=C(Br)/C(=C/Br)OC1=O
- IC50 (Salmonella typhimurium): 50 µM

Structure (SMILES): CC1(C)OC(=O)C(Oc2ccc(Br)cn2)=C1c1ccc(S(C)(=O)=O)cc1
- ED50 (Rattus norvegicus [8]): 0.2 mg/kg
- ED50 (Rattus norvegicus [9]): 0.86 mg/kg

Structure (SMILES): O=C1O[C@H]([C@@H](O)CO)C(O)=C1O [ASCORBIC ACID]
- LD50 at 192 h [10]: > 800 mg/kg

Structure (SMILES): Cc1ccc2cc(/C=C3\C=C(c4ccc5ccccc5c4)OC3=O)c(Cl)nc2c1
- inhibition (INH) (Rattus norvegicus [1]): 56 - 63%

Structure (SMILES): COc1cccc2cc(/C=C3/CC(c4ccc(C)cc4C)OC3=O)c(Cl)nc12 (stereo unspecified)
- MIC (Plasmodium falciparum): 0.5 to 0.72 µg/mL (≈ 1.27 to 1.83 µM)

Structure (SMILES): O=C1C=C(c2ccc(Cl)cc2)O/C1=N\C12CC3CC(CC(C3)C1)C2
- MIC (Escherichia coli [3]): 7.8 µg/mL (≈ 22.8 µM)

Structure (SMILES): CC(C)(C)C(=O)OCC1C=C(c2ccc(Cl)c(Cl)c2)C(=O)O1 (stereo unspecified)
- MIC (Aspergillus fumigatus [11]): 1.34 µg/mL (≈ 3.9 µM)

Structure (SMILES): O=C1C=C(Br)/C(=C/Br)O1
- IC50 (Salmonella typhimurium): 10 µM

Structure (SMILES): COc1ccc(/C=C2\C=C(c3ccc4ccccc4c3)OC2=O)cc1
- inhibition in vivo at 20 mg/kg (Rattus norvegicus [12]): 74.8 to 89.7%
- inhibition in vivo at 20 mg/kg (Mus musculus [13]): 70 to 74%

Structure (SMILES): CC(=O)OCC1C=C(c2ccc(Cl)c(Cl)c2)C(=O)O1 (stereo unspecified)
- MIC (Candida albicans [14]): 2 µg/mL (≈ 6.64 µM)

Structure (SMILES): CC(C1CCOC1=O)C(F)(F)F (stereo unspecified)
- IC50 [5]: 142 µM
- CD50 (Mus musculus [6]): 30 mg/kg

Structure (SMILES): C[C@@H]1[C@H](O)[C@@H](C)/C=C/C=C/C=C/C=C/C=C/C=C/C=C/[C@H](O[C@@H]2O[C@H](C)[C@@H](O)[C@H](N)[C@@H]2O)C[C@@H]2O[C@](O)(C[C@@H](O)C[C@@H](O)[C@H](O)CC[C@@H](O)C[C@@H](O)CC(=O)O[C@H]1C)C[C@H](O)[C@H]2C(=O)O [AMPHOTERICIN B]
- MIC (Aspergillus fumigatus [11]): 0.5 µg/mL (≈ 0.541 µM)

Structure (SMILES): O=C1OC(c2ccc(-c3ccccc3)cc2)=C/C1=C\c1cc2ccc([N+](=O)[O-])cc2nc1Cl
- inhibition (INH) (Rattus norvegicus [1]): 56 - 63%

Structure (SMILES): O=C1OCCC1CC(F)(F)F (stereo unspecified)
- IC50 [5]: 105 µM
- CD50 (Mus musculus [6]): 30 mg/kg

Structure (SMILES): CC(=O)N1CCN(c2ccc(OCC3COC(Cn4ccnc4)(c4ccc(Cl)cc4Cl)O3)cc2)CC1 (stereo unspecified) [KETOCONAZOLE]
- MIC (Lichtheimia corymbifera): 16.6 µg/mL (≈ 31.2 µM)
- MIC (Aspergillus fumigatus [15]): 16.6 µg/mL (≈ 31.2 µM)

Structure (SMILES): COc1cc(/C=C2/C=C(c3ccc(C)cc3C)OC2=O)cc(OC)c1OC
- inhibition in vivo at 20 mg/kg (Rattus norvegicus [16]): 48.4%

Structure (SMILES): CCC1(CC)CC(CCOC(=O)c2ccc(C)cc2)OC1=O (stereo unspecified)
- ED50 (Mus musculus [17]): 89.9 to 285 mg/kg

Structure (SMILES): CC(=O)OCC1C=C(c2ccc(Br)cc2)C(=O)O1 (stereo unspecified)
- MIC (Candida albicans [14]): 0.5 µg/mL (≈ 1.61 µM)

Structure (SMILES): O=C1OC(c2ccc3ccccc3c2)=C/C1=C\c1ccc([N+](=O)[O-])cc1
- inhibition in vivo at 20 mg/kg (Rattus norvegicus [12]): 74.8 to 89.7%
- inhibition in vivo at 20 mg/kg (Mus musculus [13]): 70 to 74%

Structure (SMILES): O=C1OC(c2ccc(Cl)cc2)=C/C1=C\c1ccc(Br)cc1
- MIC (Staphylococcus aureus [18]): 12.5 to 50 µg/mL (≈ 34.6 to 138 µM)
- MIC (Pseudomonas aeruginosa): 12.5 to 50 µg/mL (≈ 34.6 to 138 µM)
- MIC (Rhizopus arrhizus): 12.5 to 50 µg/mL (≈ 34.6 to 138 µM)
- MIC (Candida albicans [19]): 12.5 to 50 µg/mL (≈ 34.6 to 138 µM)
- MIC (Escherichia coli [20]): 12.5 to 50 µg/mL (≈ 34.6 to 138 µM)
- MIC (Aspergillus niger): 12.5 to 50 µg/mL (≈ 34.6 to 138 µM)

Structure (SMILES): O=C1OC(c2ccc(-c3ccccc3)cc2)=C/C1=C\c1cc2ccc(Cl)cc2nc1Cl
- inhibition (INH) (Rattus norvegicus [1]): 56 - 63%

Structure (SMILES): O=C1OC(c2ccc3ccccc3c2)=C/C1=C\c1cc2ccc(Cl)cc2nc1Cl
- inhibition (INH) (Rattus norvegicus [1]): 56 - 63%
